Results as given in ChEMBL document CHEMBL4483862, “Open-source discovery of chemical leads for next-generation chemoprotective antimalarials” (2018).

Test system: Plasmodium berghei
Assay: Luciferase/luciferin-expressing antifolate-resistant parasites were used to infect a culture of HepG2 cells that were pre-incubated with compounds. Infected hepatocytes emit light due to the luciferase reaction. Assay results are presented as the percent inhibition of light emission compared to control. […]
Assay type: functional
Details: sporozoite; for IC90: read-out: LUCIFERASE INFECTION ASSAY - IC90
[1] = read-out: LUCIFERASE INFECTION ASSAY - IC50

Compound | IC50 [1] | IC90 | other results
CC(C(=O)Nc1ccc(O)cc1)c1ccc2c(c1)[nH]c1ccc(Cl)cc12 (stereo unspecified) | > 9.05 µM | > 9.05 µM | –
Cc1ccc(CNC(=O)c2ccc(CN3CCc4ccccc4C3)cc2)cc1 | – | > 8.91 µM | IC50 (PBLUC_HILL_SLOPE 3.55, PBLUC_R_SQUARED 0.838, read-out: LUCIFERASE INFECTION ASSAY - IC50): 6.04 µM
CSc1ccc(Cl)c(C(=O)OCC(=O)N2CCN(C(=O)c3ccco3)CC2)c1 | > 10 µM | > 10 µM | –
c1ccc(-n2c(SCc3nc(-c4cccs4)no3)nnc2-c2ccc3c(c2)OCO3)cc1 | – | 6.69 µM | IC50 (HEPG2TOX_HILL_SLOPE 1.25, HEPG2TOX_R_SQUARED 0.965, PBLUC_HILL_SLOPE 1.25, PBLUC_R_SQUARED 0.656, read-out: LUCIFERASE INFECTION ASSAY - IC50): 1.15 µM
COc1ccc(-c2cnc3ccc(-c4cccc(F)c4)nn23)cc1OC | – | 1.27 µM | IC50 (HEPG2TOX_HILL_SLOPE 3.03, HEPG2TOX_R_SQUARED 0.965, PBLUC_HILL_SLOPE 7.81, PBLUC_R_SQUARED 0.531, read-out: LUCIFERASE INFECTION ASSAY - IC50): 0.958 µM
CCNC(=O)Cn1c(=O)/c(=C\c2ccccc2Cl)s/c1=C\C(=O)c1ccccc1C | > 10 µM | > 10 µM | –
Cc1onc(-c2ccccc2Cl)c1C(=O)ON=C1C2CC3CC(C2)CC1C3 | – | > 8.57 µM | IC50 (PBLUC_HILL_SLOPE 2.42, PBLUC_R_SQUARED 0.273, read-out: LUCIFERASE INFECTION ASSAY - IC50): 5.03 µM
CCOc1ncccc1C(=O)N(C)Cc1cn(-c2ccccc2)nc1-c1ccccc1 | 4.36 µM | 5.34 µM | –
CN(Cc1ccc2c(c1)OCO2)c1cnn(-c2nc3ccccc3[nH]2)c(=O)c1Cl | – | 3.94 µM | IC50 (HEPG2TOX_HILL_SLOPE 3.37, 11.7, HEPG2TOX_R_SQUARED 0.995, 0.503, PBLUC_HILL_SLOPE 3.37, 1.13, PBLUC_R_SQUARED 0.633, 0.779, read-out: LUCIFERASE INFECTION ASSAY - IC50): 0.948 µM
Cn1c(-c2cc3c(s2)CCC(C(C)(C)C)C3)n[nH]c1=S (stereo unspecified) | – | 7.62 µM | IC50 (HEPG2TOX_HILL_SLOPE 1.61, HEPG2TOX_R_SQUARED 0.989, PBLUC_HILL_SLOPE 2.28, PBLUC_R_SQUARED 0.71, read-out: LUCIFERASE INFECTION ASSAY - IC50): 2.9 µM
CCCNC(=O)c1c(NC(=O)c2cccc(F)c2)nc2ccccn12 | 4.52 µM | 7.76 µM | –
CNc1nc2cnc(Nc3cccc(N(C)C)c3)cc2n1-c1cc(OC)c(OC)c(OC)c1 | > 10 µM | > 10 µM | –
CCCCOc1ccc(Nc2nc(C(N)Cc3ccc(F)cc3)cs2)nn1 (stereo unspecified) | – | > 8.52 µM | IC50 (PBLUC_HILL_SLOPE 19.3, PBLUC_R_SQUARED 0.0642, read-out: LUCIFERASE INFECTION ASSAY - IC50): 8.34 µM
COc1cc(-c2cn3c(-c4cccc(C(C)=O)c4)cnc3cn2)ccc1O | – | > 9.18 µM | IC50 (HEPG2TOX_HILL_SLOPE 8.28, HEPG2TOX_R_SQUARED 0.589, PBLUC_HILL_SLOPE 10.1, PBLUC_R_SQUARED 0.274, read-out: LUCIFERASE INFECTION ASSAY - IC50): 7.75 µM
COc1cc(OC)cc(C(=O)NC(=S)N(Cc2ccccc2)C(C)C)c1 | – | > 10 µM | IC50 (PBLUC_HILL_SLOPE 14.1, PBLUC_R_SQUARED 0.0494, read-out: LUCIFERASE INFECTION ASSAY - IC50): 8.89 µM
CO/N=C1\CCCc2c(C(=O)N/N=C/c3ccccc3Cl)sc(SC)c21 | – | 1.81 µM | IC50 (FFLUC_HILL_SLOPE 19.7, FFLUC_R_SQUARED 0.147, HEPG2TOX_HILL_SLOPE 0.857, HEPG2TOX_R_SQUARED 0.906, PBLUC_HILL_SLOPE 1.47, PBLUC_R_SQUARED 0.897, read-out: LUCIFERASE INFECTION ASSAY - IC50): 0.406 µM
Nc1nc(-c2c[nH]c3ccccc23)c(-c2ccccc2)s1 | – | > 10 µM | IC50 (PBLUC_HILL_SLOPE 2.51, PBLUC_R_SQUARED 0.619, read-out: LUCIFERASE INFECTION ASSAY - IC50): 7.04 µM
Cc1sc2ncnc(N/N=C/c3cn(-c4ccccc4)nc3-c3ccc4c(c3)OCCO4)c2c1C | – | 3.63 µM | IC50 (HEPG2TOX_HILL_SLOPE 4.65, HEPG2TOX_R_SQUARED 0.952, PBLUC_HILL_SLOPE 26.5, PBLUC_R_SQUARED 0.19, read-out: LUCIFERASE INFECTION ASSAY - IC50): 3.34 µM
N#Cc1cccc(CN2CCN3C(C(=O)Nc4ccc(Oc5ccccc5)cc4)=COC3=NC2=O)c1 | – | > 10 µM | IC50 (HEPG2TOX_HILL_SLOPE 5.43, HEPG2TOX_R_SQUARED 0.0351, read-out: LUCIFERASE INFECTION ASSAY - IC50): > 10 µM
COCC(C)n1c(C)cc(C(=O)COC(=O)c2cccc(C)c2C)c1C (stereo unspecified) | – | 6.95 µM | IC50 (HEPG2TOX_HILL_SLOPE 0.0806, HEPG2TOX_R_SQUARED 0.082, PBLUC_HILL_SLOPE 4.05, PBLUC_R_SQUARED 0.617, read-out: LUCIFERASE INFECTION ASSAY - IC50): 4.04 µM
Cc1ccc(-c2cnc3c(Nc4ccc(NS(=O)(=O)c5ccc(C)cc5)cc4)nccn23)cc1 | – | > 7.03 µM | IC50 (PBLUC_HILL_SLOPE 0.774, PBLUC_R_SQUARED 0.875, read-out: LUCIFERASE INFECTION ASSAY - IC50): 1.09 µM
CC(C)c1ccccc1NC(=O)COC(=O)C(C)(C)Oc1ccc(Cl)cc1 | > 10 µM | > 10 µM | –

Compound | IC50 [1] | IC90 | other results
N#C/C(=C\c1cn(Cc2ccccc2)nc1-c1cccnc1)c1ccc([N+](=O)[O-])cc1 | 0.786 µM | 1.62 µM | –
COCCCNc1nccn2c(-c3ccccc3OC)cnc12 | – | 5 µM | IC50 (FFLUC_HILL_SLOPE 1.63, FFLUC_R_SQUARED 0.685, HEPG2TOX_HILL_SLOPE 3.12, HEPG2TOX_R_SQUARED 0.689, PBLUC_HILL_SLOPE 1.97, PBLUC_R_SQUARED 0.68, read-out: LUCIFERASE INFECTION ASSAY - IC50): 1.64 µM
Cc1c(C)n(CCCO)c2ncn3nc(-c4ccccc4O)nc3c12 | – | 0.862 µM | IC50 (FFLUC_HILL_SLOPE 0.508, FFLUC_R_SQUARED 0.752, HEPG2TOX_HILL_SLOPE 10.5, HEPG2TOX_R_SQUARED 0.849, PBLUC_HILL_SLOPE 1, PBLUC_R_SQUARED 0.894, read-out: LUCIFERASE INFECTION ASSAY - IC50): 0.0964 µM
CCOC(=O)c1sc(SCc2ccccc2)c2c1CC(c1ccccc1)CC2=O (stereo unspecified) | – | > 7.81 µM | IC50 (FFLUC_HILL_SLOPE 10.5, FFLUC_R_SQUARED 0.686, PBLUC_HILL_SLOPE 0.804, PBLUC_R_SQUARED 0.242, read-out: LUCIFERASE INFECTION ASSAY - IC50): > 7.81 µM
OCCCNc1nn2c(-c3ccccc3Cl)cnc2s1 | > 10.7 µM | > 10.7 µM | –
CS(=O)(=O)c1ccc(-c2cnc3c(NC=O)cc(-c4ccsc4)cn23)cc1 | – | 4.59 µM | IC50 (PBLUC_HILL_SLOPE 3.07, PBLUC_R_SQUARED 0.32, read-out: LUCIFERASE INFECTION ASSAY - IC50): 2.24 µM
Cc1nn(CC(C)C)c(C)c1CC(=O)NCc1ccccc1Cn1cccn1 | > 10 µM | > 10 µM | –
CC(C)C(Nc1ccc(C(F)(F)F)cc1Cl)C(=O)Nc1ccc(-n2cncn2)nc1 (stereo unspecified) | – | > 10 µM | IC50 (HEPG2TOX_HILL_SLOPE 1.66, HEPG2TOX_R_SQUARED 0.94, PBLUC_HILL_SLOPE 0.872, PBLUC_R_SQUARED 0.779, read-out: LUCIFERASE INFECTION ASSAY - IC50): 2.14 µM
Cc1ccc(NC(=S)Nc2ccc(Cl)cc2)cc1F | > 11.2 µM | > 11.2 µM | –
COc1cc(Nc2nccc3c2cc(-c2ccc(C(=O)N(C)C)cc2)n3C)cc(C(F)(F)F)c1 | – | 4.64 µM | IC50 (PBLUC_HILL_SLOPE 8.8, PBLUC_R_SQUARED 0.371, read-out: LUCIFERASE INFECTION ASSAY - IC50): 3.62 µM
COc1ccc(-c2cnc3ccc(NCc4ccc(S(N)(=O)=O)cc4)nn23)cn1 | – | > 8.04 µM | IC50 (HEPG2TOX_HILL_SLOPE 2.67, HEPG2TOX_R_SQUARED 0.289, PBLUC_HILL_SLOPE 3.8, PBLUC_R_SQUARED 0.626, read-out: LUCIFERASE INFECTION ASSAY - IC50): 4.71 µM
CCOC(=O)c1c(C)[nH]c(C(=O)Nc2ccnn2C2CCCC2)c1C | 6.86 µM | 6.13 µM | –
CC/C=C1/CC(=O)N(c2ccc(OC(C)=O)cc2)C1=O | > 12.1 µM | > 12.1 µM | –
O=[N+]([O-])c1cc(Cl)ccc1N1CCN(c2ncnc3sc4c(c23)CCC4)CC1 | – | > 10 µM | IC50 (FFLUC_HILL_SLOPE 15.4, FFLUC_R_SQUARED 0.646, read-out: LUCIFERASE INFECTION ASSAY - IC50): > 10 µM
Cc1nc2ccccc2nc1SCC(=O)Nc1ccccc1N1CCOCC1 | > 10 µM | > 10 µM | –
CCCNC(=O)c1c(NC(=O)c2ccc(OCC)cc2)nc2ccccn12 | – | 8.98 µM | IC50 (PBLUC_HILL_SLOPE 45.3, PBLUC_R_SQUARED 0.241, read-out: LUCIFERASE INFECTION ASSAY - IC50): 8.55 µM
COC(=O)c1cc2c(N)c(C(=O)c3cc(C#N)c(SC)nc3C)sc2nc1C | 5.83 µM | > 10 µM | –
O=C(NCc1ccccn1)c1nn(CCc2ccccc2)c2c1CN(Cc1ccc(F)cc1)CC2 | – | > 7.03 µM | IC50 (PBLUC_HILL_SLOPE 15.1, PBLUC_R_SQUARED 0.777, read-out: LUCIFERASE INFECTION ASSAY - IC50): 6.49 µM
Cc1ccccc1N1CCCn2c1nc1c2c(=O)[nH]c(=O)n1C | > 10.6 µM | > 10.6 µM | –
O=C1C(Cl)=C(Nc2ccccc2)C(=O)c2ccccc21 | – | > 11.6 µM | IC50 (HEPG2TOX_HILL_SLOPE 3.85, HEPG2TOX_R_SQUARED 0.988, PBLUC_HILL_SLOPE 1.86, PBLUC_R_SQUARED 0.682, read-out: LUCIFERASE INFECTION ASSAY - IC50): 3.78 µM
CC1(C)CCc2cc(/C=N/NC(=O)c3ccc(Cl)cc3)ccc2O1 | – | > 9.63 µM | IC50 (FFLUC_HILL_SLOPE 0.306, FFLUC_R_SQUARED 0.456, PBLUC_HILL_SLOPE 2.8, PBLUC_R_SQUARED 0.043, read-out: LUCIFERASE INFECTION ASSAY - IC50): 6.8 µM
